# Data as given in US20250249056A1, “CANCER THERAPIES COMPRISING A NUCLEAR EXPORT INHIBITOR AND AN ONCOLYTIC VIRUS” (priority 2022, published 2025).
# System: Colo205 cells
# Type: cell-based, human
# Settings: selinexor-treated nucleus vs MYXV + selinexor-treated nucleus
smiles,measurement,value
O=C(/C=C\n1cnc(-c2cc(C(F)(F)F)cc(C(F)(F)F)c2)n1)NNc1cnccn1 [selinexor],Differential protein expression B2CWG0 m053R,0.01
same,Differential protein expression B2CWG4 m057L,0.01
same,Differential protein expression B2CWG5 m058R,0.176
same,Differential protein expression B2CWG7 m060R,0.01
same,Differential protein expression B2CWG8 m061R,0.01
same,Differential protein expression B2CWH0,0.069
same,Differential protein expression B2CWH1 m064R,0.211
same,Differential protein expression B2CWH3 m066R,0.01
same,Differential protein expression B2CWH6 m069L,0.01
same,Differential protein expression B2CWH8,0.232
same,Differential protein expression B2CWI0,0.021
same,Differential protein expression B2CWI3 m076R,0.096
same,Differential protein expression B2CWI4 m077L,0.01
same,Differential protein expression B2CWI6 m079R,0.131
same,Differential protein expression B2CWI7 m080R,0.036
same,Differential protein expression B2CWJ3,0.01
same,Differential protein expression B2CWJ5,0.01
same,Differential protein expression B2CWJ9 m092L,0.16
same,Differential protein expression B2CWK2 m095L,0.029
same,Differential protein expression B2CWL4,0.01
same,Differential protein expression B2CWL5 m108R,0.088
same,Differential protein expression B2CWL8 m111R,0.101
same,Differential protein expression B2CWM1,0.083
same,Differential protein expression B2CWM2 m115L,0.077
same,Differential protein expression B2CWP6 m139R,0.04
same,Differential protein expression B2CWP9 m142R,0.01
same,Differential protein expression B2CWQ5 m149R,0.01
same,Differential protein expression B2CWQ7,0.229
same,Differential protein expression B2CWR1 m156R,0.022
same,Differential protein expression D2WM37 m012L,0.058
same,Differential protein expression D2WMA0 m030L,0.057
same,Differential protein expression D2WN05 m078R,0.021
same,Differential protein expression D2WN26 m090L,0.097
same,Differential protein expression D2WN93 m151R,0.255
same,Differential protein expression D3W0C4 m130R,0.01
same,Differential protein expression E2CZH7 m088L,0.01
same,Differential protein expression E2CZJ6 m107L,0.01
same,Differential protein expression E2CZJ9 m110L,0.01
same,Differential protein expression E2CZK3 m114R,0.083
same,Differential protein expression E2CZL2 m123R,0.277
same,Differential protein expression E2CZL6 m127L,0.025
same,Differential protein expression E2CZM0 m131R,0.01
same,Differential protein expression E2CZM2 m133R,0.048
same,Differential protein expression E2CZP2 m001R,0.037
same,Differential protein expression E2CZQ3 m009L,0.132
same,Differential protein expression E2CZQ9 m014L,0.092
same,Differential protein expression E2CZR0 m015L,0.04
same,Differential protein expression E2CZR6 m021L,0.133
same,Differential protein expression E2CZV0 m055R,0.052
same,Differential protein expression E2CZV1 m056R,0.01
same,Differential protein expression E2CZV4 m059R,0.01
same,Differential protein expression E2CZW3 m068R,0.052
same,Differential protein expression E2CZW7 m072L,0.211
same,Differential protein expression E2CZY1 m086L,0.01
same,Differential protein expression K4JKC2 m073R,0.021
same,Differential protein expression O00584 RNASET2,0.01
same,Differential protein expression O10625 M-T1,0.037
same,Differential protein expression O55698 M-T4,0.122
same,Differential protein expression O76013 KRT36,0.01
same,Differential protein expression O76015 KRT38,0.01
same,Differential protein expression P01100 FOS,0.211
same,Differential protein expression P05090 APOD,0.01
same,Differential protein expression P07942 LAMB1,0.128
same,Differential protein expression P10909 CLU,0.01
same,Differential protein expression P14209 CD99,0.01
same,Differential protein expression P17066 HSPA6,0.01
same,Differential protein expression P17516 AKR1C4,0.01
same,Differential protein expression P50583 NUDT2,0.01
same,Differential protein expression P68544 PAPS,0.044
same,Differential protein expression P68550,0.168
same,Differential protein expression Q5BJH7 YIF1B,0.161
same,Differential protein expression Q5VVJ2 MYSM1,0.01
same,Differential protein expression Q6SJ93 FAM111B,0.253
same,Differential protein expression Q8IY95 TMEM192,0.01
same,Differential protein expression Q8TB72 PUM2,0.01
same,Differential protein expression Q8TDQ7 GNPDA2,0.01
same,Differential protein expression Q9P000 COMMD9,0.213
same,Differential protein expression Q9PX24 m007L,0.087
same,Differential protein expression Q9PX36 m006L,0.035
same,Differential protein expression Q9PXA3 m004L,0.122
same,Differential protein expression Q9Q8F0 m154L,0.125
same,Differential protein expression Q9Q8F9 m144R,0.179
same,Differential protein expression Q9Q8G2 m140R,0.165
same,Differential protein expression Q9Q8G4 m137R,0.01
same,Differential protein expression Q9Q8G6 m135R,0.021
same,Differential protein expression Q9Q8H2 m129R,0.119
same,Differential protein expression Q9Q8H9 m122R,0.022
same,Differential protein expression Q9Q8I1 m120L,0.024
same,Differential protein expression Q9Q8I4 m117L,0.027
same,Differential protein expression Q9Q8I6 m114R,0.083
same,Differential protein expression Q9Q8J1 m109L,0.032
same,Differential protein expression Q9Q8J4 m106L,0.01
same,Differential protein expression Q9Q8J5 m105L,0.01
same,Differential protein expression Q9Q8J9 m101L,0.01
same,Differential protein expression Q9Q8K1 m099L,0.03
same,Differential protein expression Q9Q8K3 m097R,0.01
same,Differential protein expression Q9Q8K6 m094R,0.01
same,Differential protein expression Q9Q8K7 m093L,0.039
same,Differential protein expression Q9Q8L1 m089L,0.01
same,Differential protein expression Q9Q8L3 m087L,0.069
same,Differential protein expression Q9Q8L8 m082R,0.037
same,Differential protein expression Q9Q8L9 VETFS,0.087
same,Differential protein expression Q9Q8M5 m075R,0.01
same,Differential protein expression Q9Q8M6 m074R,0.047
same,Differential protein expression Q9Q8M9 m071L,0.232
same,Differential protein expression Q9Q8N0 m070R,0.01
same,Differential protein expression Q9Q8N5,0.069
same,Differential protein expression Q9Q8N8 m058R,0.176
same,Differential protein expression Q9Q8P4 m052L,0.029
same,Differential protein expression Q9Q8P7 m049R,0.051
same,Differential protein expression Q9Q8Q1,0.059
same,Differential protein expression Q9Q8Q3 m043L,0.067
same,Differential protein expression Q9Q8Q6 m040L,0.011
same,Differential protein expression Q9Q8Q8 m038L,0.023
same,Differential protein expression Q9Q8R0 m036L,0.099
same,Differential protein expression Q9Q8R4 m032R,0.01
same,Differential protein expression Q9Q8R5 m031R,0.011
same,Differential protein expression Q9Q8S0 m026R,0.039
same,Differential protein expression Q9Q8S2 m020L,0.191
same,Differential protein expression Q9Q8S8 m013L,0.172
same,Differential protein expression Q9Q817 m113R,0.037
same,Differential protein expression Q9UHX3 ADGRE2,0.01
same,Differential protein expression Q9UJ68 MSRA,0.202
same,Differential protein expression Q9YQ03 mt6,0.031
same,Differential protein expression Q68DK2 ZFYVE26,0.092
same,Differential protein expression Q77P93 m003.2L,0.049
same,Differential protein expression Q77PB1 m003.1L,0.145
same,Differential protein expression Q86WV6 STING1,0.01
same,Differential protein expression Q96HD1 CRELD1,0.01
same,Differential protein expression Q96LJ7 DHRS1,0.01
same,Differential protein expression Q12913 PTPRJ,0.01
same,Differential protein expression Q16204 CCDC6,0.249
same,Differential protein expression Q58719 SFT2D3,0.01
same,Differential protein expression Q83604 MF13,0.058
same,Differential protein expression Q83730 m005R,0.01
same,Differential protein expression Q85296,0.124
same,Differential protein expression Q85297,0.01
